Test results published in patent US8598344B2, “CDKI pathway inhibitors and uses thereof” (Senex Biotechnology, priority 2009, dated 2013).

Experiments:
Test in all cases: KinomeScan competition binding assay
Conditions in all cases: 10 μM compound
[1] = target: T1, YSK4 (Homo sapiens, UniProt Q56UN5)
T1 construct: purchased KinomeScan, a division of Ambit Biosciences
T1 sequence (Q56UN5 1-1328): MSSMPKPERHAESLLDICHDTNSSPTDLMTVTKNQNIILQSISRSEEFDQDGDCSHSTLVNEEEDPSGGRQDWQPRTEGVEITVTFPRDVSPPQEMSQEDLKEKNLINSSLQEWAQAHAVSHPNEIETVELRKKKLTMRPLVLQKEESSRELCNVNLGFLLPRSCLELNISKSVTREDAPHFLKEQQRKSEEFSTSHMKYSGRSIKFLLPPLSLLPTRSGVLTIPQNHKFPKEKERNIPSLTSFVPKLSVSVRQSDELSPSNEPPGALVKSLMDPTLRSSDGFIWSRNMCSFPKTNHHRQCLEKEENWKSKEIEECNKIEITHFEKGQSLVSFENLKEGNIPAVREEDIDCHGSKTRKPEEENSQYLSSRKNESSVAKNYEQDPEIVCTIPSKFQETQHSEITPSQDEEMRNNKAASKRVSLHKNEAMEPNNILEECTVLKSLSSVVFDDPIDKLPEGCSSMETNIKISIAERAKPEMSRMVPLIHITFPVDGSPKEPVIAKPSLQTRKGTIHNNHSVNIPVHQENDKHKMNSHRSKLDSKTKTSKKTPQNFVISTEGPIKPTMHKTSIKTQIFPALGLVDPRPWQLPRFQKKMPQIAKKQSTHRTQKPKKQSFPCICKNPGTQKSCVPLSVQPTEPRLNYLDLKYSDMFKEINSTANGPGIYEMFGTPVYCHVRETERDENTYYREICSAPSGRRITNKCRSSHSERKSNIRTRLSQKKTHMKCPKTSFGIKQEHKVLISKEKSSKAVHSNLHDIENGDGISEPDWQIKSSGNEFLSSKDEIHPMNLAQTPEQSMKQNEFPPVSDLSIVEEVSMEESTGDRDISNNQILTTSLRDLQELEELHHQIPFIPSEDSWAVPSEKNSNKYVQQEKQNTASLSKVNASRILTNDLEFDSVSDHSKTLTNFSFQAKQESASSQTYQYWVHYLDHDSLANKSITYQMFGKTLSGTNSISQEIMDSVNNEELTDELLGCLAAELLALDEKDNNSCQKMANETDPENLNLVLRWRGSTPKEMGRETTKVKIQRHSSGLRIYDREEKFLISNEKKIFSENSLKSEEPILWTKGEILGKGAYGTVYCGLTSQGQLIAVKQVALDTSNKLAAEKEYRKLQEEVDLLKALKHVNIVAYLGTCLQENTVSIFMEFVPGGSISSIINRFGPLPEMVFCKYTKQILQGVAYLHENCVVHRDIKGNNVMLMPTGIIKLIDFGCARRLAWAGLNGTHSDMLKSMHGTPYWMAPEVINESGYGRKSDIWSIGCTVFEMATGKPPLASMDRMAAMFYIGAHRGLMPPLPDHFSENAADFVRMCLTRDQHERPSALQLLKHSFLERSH
Summary of the method: (§1)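 Quantitative PCR of a DNA tag measured how much tagged kinase stayed bound to an immobilized ATP-site ligand in the presence of compound. Results were expressed as percent-of-control binding, with Kd determined for selected kinases.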

[2] = target: T2, CSNK1G3 (Homo sapiens, UniProt Q9Y6M4)
T2 construct: purchased KinomeScan, a division of Ambit Biosciences
Summary of the method: as §1

[3] = target: T3, MEK5 (Homo sapiens, UniProt Q13163)
T3 construct: purchased KinomeScan, a division of Ambit Biosciences
T3 sequence (Q13163 1-448): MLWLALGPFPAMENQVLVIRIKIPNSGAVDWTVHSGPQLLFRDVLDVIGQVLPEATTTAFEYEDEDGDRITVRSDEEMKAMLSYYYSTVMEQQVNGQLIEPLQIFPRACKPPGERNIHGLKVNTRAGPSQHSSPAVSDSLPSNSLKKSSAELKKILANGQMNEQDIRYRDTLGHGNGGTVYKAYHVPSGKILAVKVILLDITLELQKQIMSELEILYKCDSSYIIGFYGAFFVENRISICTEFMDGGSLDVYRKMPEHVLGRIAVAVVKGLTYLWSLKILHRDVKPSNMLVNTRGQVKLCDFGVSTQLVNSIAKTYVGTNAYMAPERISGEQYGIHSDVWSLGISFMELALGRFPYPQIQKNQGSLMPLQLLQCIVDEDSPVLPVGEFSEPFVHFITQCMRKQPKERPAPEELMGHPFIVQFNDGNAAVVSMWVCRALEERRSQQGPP
Summary of the method: as §1

[4] = target: T4, PIP5K2C (Homo sapiens, UniProt Q8TBX8)
T4 construct: purchased KinomeScan, a division of Ambit Biosciences
T4 sequence (Q8TBX8 1-421): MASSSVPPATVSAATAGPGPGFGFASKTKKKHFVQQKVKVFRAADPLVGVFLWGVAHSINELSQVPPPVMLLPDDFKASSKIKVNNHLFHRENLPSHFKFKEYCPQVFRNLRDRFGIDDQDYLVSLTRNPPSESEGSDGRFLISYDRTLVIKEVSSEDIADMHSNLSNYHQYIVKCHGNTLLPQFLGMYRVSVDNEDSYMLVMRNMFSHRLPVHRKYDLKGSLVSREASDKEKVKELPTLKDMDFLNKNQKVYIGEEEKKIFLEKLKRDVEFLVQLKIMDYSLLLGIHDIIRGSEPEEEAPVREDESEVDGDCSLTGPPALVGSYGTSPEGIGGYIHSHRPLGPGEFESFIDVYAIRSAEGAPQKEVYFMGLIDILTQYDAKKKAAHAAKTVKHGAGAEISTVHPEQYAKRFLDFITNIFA
Summary of the method: as §1

[5] = target: T5, HIPK3 (Homo sapiens, UniProt Q9H422)
T5 construct: purchased KinomeScan, a division of Ambit Biosciences
Summary of the method: as §1

T2 sequence (Q9Y6M4 whole entry): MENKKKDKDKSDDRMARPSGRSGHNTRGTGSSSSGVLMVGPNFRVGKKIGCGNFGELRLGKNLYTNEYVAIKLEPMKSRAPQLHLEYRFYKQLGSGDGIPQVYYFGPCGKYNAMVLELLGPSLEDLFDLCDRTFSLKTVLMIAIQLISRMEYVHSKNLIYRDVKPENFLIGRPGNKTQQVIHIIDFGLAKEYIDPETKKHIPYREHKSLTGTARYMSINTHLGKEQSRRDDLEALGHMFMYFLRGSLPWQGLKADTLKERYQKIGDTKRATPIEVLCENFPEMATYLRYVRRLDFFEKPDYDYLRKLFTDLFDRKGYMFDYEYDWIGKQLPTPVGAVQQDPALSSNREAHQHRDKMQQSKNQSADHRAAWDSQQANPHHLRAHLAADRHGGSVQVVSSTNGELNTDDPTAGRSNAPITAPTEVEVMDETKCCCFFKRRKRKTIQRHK
T5 sequence (Q9H422 whole entry): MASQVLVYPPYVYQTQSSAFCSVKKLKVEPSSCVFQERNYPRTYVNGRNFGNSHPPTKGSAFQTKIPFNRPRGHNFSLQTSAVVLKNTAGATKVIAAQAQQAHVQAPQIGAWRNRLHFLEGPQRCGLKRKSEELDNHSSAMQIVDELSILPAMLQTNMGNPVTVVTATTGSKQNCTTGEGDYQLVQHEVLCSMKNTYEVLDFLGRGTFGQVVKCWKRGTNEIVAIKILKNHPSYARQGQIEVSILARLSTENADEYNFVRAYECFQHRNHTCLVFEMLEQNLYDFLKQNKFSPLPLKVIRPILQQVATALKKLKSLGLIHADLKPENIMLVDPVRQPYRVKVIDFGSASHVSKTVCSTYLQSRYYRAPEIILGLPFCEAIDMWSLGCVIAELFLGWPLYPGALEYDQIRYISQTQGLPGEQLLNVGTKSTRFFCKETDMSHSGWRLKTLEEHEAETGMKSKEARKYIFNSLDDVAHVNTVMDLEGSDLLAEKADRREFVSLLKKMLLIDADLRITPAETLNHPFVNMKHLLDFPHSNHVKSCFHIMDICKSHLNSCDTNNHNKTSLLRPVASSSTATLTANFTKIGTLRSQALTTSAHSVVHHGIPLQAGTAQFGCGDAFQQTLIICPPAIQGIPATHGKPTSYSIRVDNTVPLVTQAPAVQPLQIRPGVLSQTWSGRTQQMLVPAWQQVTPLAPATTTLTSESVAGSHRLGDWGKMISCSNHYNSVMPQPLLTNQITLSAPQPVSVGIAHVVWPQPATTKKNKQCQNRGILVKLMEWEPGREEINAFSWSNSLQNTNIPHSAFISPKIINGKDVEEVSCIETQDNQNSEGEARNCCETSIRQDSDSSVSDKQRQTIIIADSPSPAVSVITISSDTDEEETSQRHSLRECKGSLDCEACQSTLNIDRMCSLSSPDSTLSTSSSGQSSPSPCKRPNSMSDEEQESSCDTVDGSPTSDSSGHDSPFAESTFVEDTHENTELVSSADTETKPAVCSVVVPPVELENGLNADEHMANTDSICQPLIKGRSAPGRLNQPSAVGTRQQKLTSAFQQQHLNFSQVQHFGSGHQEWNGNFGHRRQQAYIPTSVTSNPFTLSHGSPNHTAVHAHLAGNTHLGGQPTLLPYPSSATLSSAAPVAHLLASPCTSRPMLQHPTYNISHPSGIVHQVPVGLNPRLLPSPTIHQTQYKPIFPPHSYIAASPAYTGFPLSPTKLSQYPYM

Structure (SMILES) | POC ligand binding, YSK4 ([1]; 10 µM) [POC] | POC ligand binding, CSNK1G3 ([2]; 10 µM) [POC] | POC ligand binding, MEK5 ([3]; 10 µM) [POC] | POC ligand binding, PIP5K2C ([4]; 10 µM) [POC] | POC ligand binding, HIPK3 ([5]; 10 µM) [POC] | POC ligand binding, YSK4 [1] [POC] | POC ligand binding, CSNK1G3 [2] [POC] | POC ligand binding, MEK5 [3] [POC] | POC ligand binding, PIP5K2C [4] [POC] | POC ligand binding, HIPK3 [5] [POC]
N#Cc1ccc2ncnc(NCc3ccc4ccccc4c3)c2c1 [compound 43] | 29 | 54 | 41 | 4 | 42 |  |  |  |  | 
CCCNc1ncnc2ccc(N3CCOCC3)cc12 [compound 46] |  |  |  |  |  | 91 | 100 | 17 | 61 | 34
N#Cc1ccc2ncnc(NCc3ccc(Cl)cc3)c2c1 [compound 20] |  |  |  |  |  | 31 | 82 | 62 | 2.4 | 28
N#Cc1ccc2ncnc(NCCc3ccc4ccccc4c3)c2c1 [compound 26] |  |  |  |  |  | 44 | 50 | 61 | 39 | 66
N#Cc1ccc2ncnc(NCCc3ccccc3)c2c1 [compound 1] |  |  |  |  |  | 5.4 | 16 | 18 | 1.2 | 18
COc1ccc2ncnc(NCCc3ccccc3)c2c1 [compound 44] |  |  |  |  |  | 39 | 84 | 59 | 59 | 53
CC(C)CNc1ncnc2ccc(C(F)(F)F)cc12 [compound 45] |  |  |  |  |  | 41 | 50 | 46 | 60 | 28
N#Cc1ccc2ncnc(NCc3ccc4ccccc4c3)c2c1 [compound 14] | 21 | 52 | 13 | 16 | 35 |  |  |  |  | 
